Measured values taken from publication PMC3613864 (Cell, 2012).
Entries after “also recorded” stand apart in the source; their conditions may differ. Like-named read-outs stand apart in the source and are kept apart here.

Legend:
CMK cells [1] = assay: Polyploidization, proliferation, apoptosis and CD41/CD42 expression in CMK cells; type: cell-based, human
6133/MPL cells [2] = assay: Transplantation of drug-pre-treated 6133/MPL cells into mice; type: in vivo, C57Bl/6 mice
AURKB = AURKB (Homo sapiens, UniProt Q96GD4); assay: Phosphorylation of Aurora kinases in CMK cells by Western blot; type: cell-based
Chain of AURKB (Q96GD4 whole entry): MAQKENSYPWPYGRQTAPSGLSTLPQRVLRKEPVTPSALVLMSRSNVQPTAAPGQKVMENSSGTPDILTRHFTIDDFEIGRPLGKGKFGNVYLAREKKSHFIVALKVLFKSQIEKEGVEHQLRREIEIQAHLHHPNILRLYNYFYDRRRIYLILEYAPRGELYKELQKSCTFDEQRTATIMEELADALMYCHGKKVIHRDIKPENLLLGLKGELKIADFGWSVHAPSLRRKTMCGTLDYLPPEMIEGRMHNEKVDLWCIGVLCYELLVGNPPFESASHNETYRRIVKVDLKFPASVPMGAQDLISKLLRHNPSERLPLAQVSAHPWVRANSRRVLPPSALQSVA

phospho-histone H3 = assay: Phosphorylation of histone H3 in CMK cells; type: cell-based, human
6133/MPL cells [3] = assay: 6133/MPL cells in vitro; type: cell-based; settings: 6133/MPL murine cell line
[4] = system: primary human megakaryocytes; assay: Primary human megakaryocytes expanded from CD34+ cells; type: cell-based
AURKA = target: T1, AURKA (Homo sapiens, UniProt O14965); assay: Phosphorylation of Aurora kinases in CMK cells by Western blot; type: cell-based
T1 sequence (O14965 1-403): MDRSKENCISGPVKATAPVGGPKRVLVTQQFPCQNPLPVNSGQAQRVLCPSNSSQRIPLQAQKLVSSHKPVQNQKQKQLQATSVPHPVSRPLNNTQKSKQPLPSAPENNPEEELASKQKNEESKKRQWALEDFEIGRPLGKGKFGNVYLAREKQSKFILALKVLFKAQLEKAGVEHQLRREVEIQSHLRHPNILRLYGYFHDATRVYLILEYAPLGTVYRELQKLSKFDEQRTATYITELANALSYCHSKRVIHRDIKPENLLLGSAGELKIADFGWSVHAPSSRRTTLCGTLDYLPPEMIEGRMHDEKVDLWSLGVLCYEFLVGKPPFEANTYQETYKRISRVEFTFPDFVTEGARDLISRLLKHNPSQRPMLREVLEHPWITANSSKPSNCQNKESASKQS

tg-ERG cells = assay: AMKL cell line derived from ERG transgenic mice; type: cell-based; settings: tg-ERG cells (data not shown)
CMK cells [5] = type: cell-based, human; settings: three-day incubation
[6] = system: murine bone marrow-derived megakaryocytes; assay: Primary murine hematopoietic progenitor cells cultured with THPO; type: cell-based; settings: primary mouse bone marrow cells cultured ex vivo
in vivo = settings: C57Bl/6, mouse, plasma, po, 15 mg/kg
[7] = Oral pharmacokinetics, plasma concentration after a single dose; settings: single oral administration of 15 mg/kg
AURKA relative to AURKB = settings: ref Gorgun et al., 2010; Manfredi et al., 2011; cited from earlier work
[8] = system: human CD41+ non-DS-AMKL blasts; assay: Human non-DS-AMKL blasts cultured ex vivo; type: cell-based; settings: 0.1 µM, 6 days
6133/MPL cells [9] = assay: Drug treatment of mice transplanted with 6133/MPL cells; type: in vivo, C57Bl/6 mice
[10] = system: leukemia blasts that harbor activated oncogenic forms of KIT, FLT3, and BCR-ABL; settings: ref Mali et al., 2011; cited from earlier work
402 purified kinases = assay: Ambit KinomeScan kinase binding profile; settings: of 402 kinases; 5 µM diMF
AMKL-derived cells = assay: Phenotype in AMKL-derived cells; type: cell-based; settings: data not shown
[11] = CMK cells, 72 hr, Fig 2: K252a, latrunculin B, diMF 5 µM, SU6656 4 µM
[12] = 1 µM, CMK cells (data not shown)
[13] = CMK cells, 0.1 µM paclitaxel 18 hr then compound 2 hr

Compound: CCN(CCO)CCCOc1ccc2c(Nc3cc(CC(=O)Nc4cccc(F)c4)[nH]n3)ncnc2c1 [AZD1152-HQPA]
- apoptosis (CMK cells [1]; [11]): induced
- polyploidization (CMK cells [1]; [11]): induced robust polyploidization
- proliferation (CMK cells [1]; [11]): restricted proliferation
- leukemia development after transplantation of pre-treated cells (6133/MPL cells [2]; 6133/MPL cells pre-treated 24 hr with 3 µM): failed to significantly interfere with leukemia development
- phospho-AURKB (AURKB; [12]): complete loss of phospho-AURKA and AURKB
- AURKB phosphorylation (AURKB; [13]): reduced phosphorylation of both Aurora A and B kinases
- phospho-histone H3 level (phospho-histone H3): reduction in phospho-histone H3
- polyploidization, CD41 and CD42 expression, and apoptosis (6133/MPL cells [3]): increased polyploidization, CD41 and CD42 expression, and apoptosis
- polyploidization of primary human megakaryocytes [4]: induced robust and selective polyploidization
- phospho-AURKA (AURKA; [12]): complete loss of phospho-AURKA and AURKB
- AURKA phosphorylation / autophosphorylation (AURKA; [13]): reduced phosphorylation of both Aurora A and B kinases
- proliferation and megakaryocyte lineage-specific surface marker expression (tg-ERG cells): induced proliferation arrest and megakaryocyte lineage-specific surface marker expression

Compound: COC(=O)[C@@]1(O)C[C@H]2O[C@]1(C)n1c3ccccc3c3c4c(c5c6ccccc6n2c5c31)C(=O)NC4 [K252a]
- apoptosis (CMK cells [1]; [11]): inducing
- polyploidization (CMK cells [1]; [11]): inducing
- proliferation (CMK cells [1]; [11]): inhibited
- screening positive: increased fraction of cells with DNA content beyond a cutoff (between 4N and 8N) compared to DMSO (CMK cells [5]): identified

Compound: COc1cc(Nc2ncc3c(n2)-c2ccc(Cl)cc2C(c2c(F)cccc2OC)=NC3)ccc1C(=O)O [MLN8237, Alisertib]
- apoptosis (CMK cells [1]; [11]): induced
- polyploidization (CMK cells [1]; [11]): induced robust polyploidization
- proliferation (CMK cells [1]; [11]): restricted proliferation
- animals surviving up to 120 days after transplantation of pre-treated cells (6133/MPL cells [2]; 6133/MPL cells pre-treated 24 hr with 1 µM): 80%
- autophosphorylation of AURKB (AURKB; 0.1 µM, CMK cells): but not AURKB
- phospho-histone H3 level (phospho-histone H3): accumulation of phospho-histone H3
- polyploidization and expression of CD41 and CD42 [6]: induced polyploidization and expression of CD41 and CD42
- Cmax (in vivo): 34.8 µM
- Tmax (in vivo): 0.5 h
- half-life (in vivo): 3.1 h
- polyploidization, CD41 and CD42 expression, and apoptosis (6133/MPL cells [3]): increased polyploidization, CD41 and CD42 expression, and apoptosis
- polyploidization of primary human megakaryocytes [4]: induced robust and selective polyploidization
- bioavailability [7]: excellent bioavailability
- mean plasma concentrations for at least 12 hr [7]: above 0.5 µM
- selectivity for AURKA relative to AURKB in cells (AURKA relative to AURKB): 200 fold
- polyploidization and proliferation of human non-DS AMKL cells [8]: induced both polyploidization and proliferative arrest
- infiltration of leukemic cells (liver, lung) (6133/MPL cells [9]; 15 mg/kg): striking reduction of infiltration of leukemic cells
- peripheral white blood cell count, spleen and liver weights (6133/MPL cells [9]; 15 mg/kg for 2 weeks vs vehicle): significantly reduced peripheral white blood cell count and spleen and liver weights
- AURKA phosphorylation / autophosphorylation (AURKA): reduced AURKA autophosphorylation
- autophosphorylation of AURKA (AURKA): inhibited autophosphorylation of AURKA
- proliferation and megakaryocyte lineage-specific surface marker expression (tg-ERG cells): induced proliferation arrest and megakaryocyte lineage-specific surface marker expression

Compound: CN(C)S(=O)(=O)c1ccc2c(c1)/C(=C/c1cc3c([nH]1)CCCC3)C(=O)N2 [SU6656]
- apoptosis (CMK cells [1]; [11]): inducing
- polyploidization (CMK cells [1]; [11]): inducing
- proliferation (CMK cells [1]; [11]): inhibited

Compound: C=C1[C@@H](C)[C@H]2[C@H](Cc3ccccc3)NC(=O)[C@]23OC(=O)/C=C/[C@H](O)CCC[C@@H](C)C/C=C/[C@H]3[C@@H]1O [cytochalasin B]
- screening positive: increased fraction of cells with DNA content beyond a cutoff (between 4N and 8N) compared to DMSO (CMK cells [5]): positives

Compound: O=S(=O)(c1cccc2cnccc12)N1CCCNCC1 [fasudil]
- growth of leukemia cells in vivo and in vitro [10]: restricted the growth
- number of kinases whose binding to the immobilized ligand was inhibited by more than 65% (402 purified kinases): 27
- activity / phenotype in AMKL-derived cells compared with diMF (AMKL-derived cells): did not fully recapitulate the strong phenotype; also recorded: lack of activity

Compound: C/C1=C/C(=O)O[C@@H]2C[C@@H](CC[C@H](C)/C=C\CC1)O[C@@](O)([C@@H]1CSC(=O)N1)C2 [latrunculin B]
- apoptosis (CMK cells [1]; [11]): inducing
- polyploidization (CMK cells [1]; [11]): inducing
- proliferation (CMK cells [1]; [11]): inhibited
- screening positive: increased fraction of cells with DNA content beyond a cutoff (between 4N and 8N) compared to DMSO (CMK cells [5]): positives

Compound: c1nc2nc(Nc3ccc(N4CCOCC4)cc3)nc(NC3CCCCC3)c2[nH]1 [reversine]
- apoptosis (CMK cells [1]; [11]): inducing
- polyploidization (CMK cells [1]; [11]): inducing
- proliferation (CMK cells [1]; [11]): inhibited
- screening positive: increased fraction of cells with DNA content beyond a cutoff (between 4N and 8N) compared to DMSO (CMK cells [5]): identified

Compound: JAK3 inhibitor VI
- apoptosis (CMK cells [1]): inducing
- polyploidization (CMK cells [1]): inducing; also recorded: Induction of CMK polyploidization
- screening positive: increased fraction of cells with DNA content beyond a cutoff (between 4N and 8N) compared to DMSO (CMK cells [5]): identified
